From patent US20260191810A1, “CAROTENOID COMPOSITIONS AND USES THEREOF” (L.E.A.F. HOLDINGS GROUP LLC, priority 2019, published 2026)

Legend:
[1] = Liposomal CTC and MTC PK, single slow intravenous bolus, plasma HPLC; format: in vivo; details: Balb/c mice
mouse CLP sepsis model = assay: Survival Study 1 (TP-936), CLP sepsis efficacy; format: in vivo, C57BL/6 mice; details: CLP mice treated with saline and imipenem (imipenem-treated control)
Source text: Male and/or female C57BL/6 mice ordered from Envigo Laboratories or the Jackson Lab (Bar Harbor, Maine) were acclimated to housing conditions and handled in accordance with Animal Use Protocol (AUP) number TP-05. The animals were acclimated for approximately 1 week prior to study start. Only animals deemed healthy were included in this study. Animals were fed irradiated Teklad Global Rodent Diet 2918 and water ad libitum. Mice were group housed 5/cage in static cages with irradiated Teklad ⅛″ corn cob bedding 7902 inside bioBubble® Clean Rooms that provide H.E.P. A filtered air into the bubble environment at 100 complete air changes per hour. The environment was controlled to a temperature range of 74°±5° F. and a humidity range of 30-70%. Treatment groups were identified by cage card. Individual mice were identified by indelible marker on the base of the tail. All procedures carried out in this experiment were conducted in compliance with the laws, regulations, and guidelines of the National Institutes of Health and with the approval of the TransPharm Animal Care and Use Committee.
On Day −1, male and/or female mice were anesthetized through use of isoflurane and brought to a surgical plane. […]
Animals were monitored continually post-surgery, at least once every 2-3 minutes for approximately 30 minutes, until the animals had recovered and were able to move about on their own. […]

AUC [1] [µg·h/mL] | T1/2 [1] [min] | SMILES | mortality (mouse CLP sepsis model) [%]
260 | 28.2 | CC(/C=C/C=C(\C)C(=O)O)=C\C=C\C=C(C)\C=C\C=C(/C)C(=O)O [STC free drug, sodium trans-crocetinate] | 
 |  | C[C@@H](O)[C@H]1C(=O)N2C(C(=O)O)=C(SCCN=CN)C[C@H]12 [imipenem] | 50
